Active and inactive are the calls of the source. The calls are words filed in the database; no cut-off is given here.
Columns and labels:
MCF7 [1] = assay: Induction of apoptosis in human MCF7 cells assessed as increase in caspase 9 expression at 2 uM after 48 hrs by Western blot analysis relative to control; format: functional
[2] = Toxicity in BALB/c nude mouse xenografted with human MCF7 cells assessed as effect on kidney at 2 mg/kg, iv administered every 2 days for 2 weeks measured after 14 days by hematoxylin and eosin staining based histopathological analysis; format: organism-based; settings: in vivo, 336 h
A-375 = assay: Synergistic anticancer activity against human A375 cells expressing assessed as combination index after 72 hrs by MTT assay; format: functional
[3] = Stability of compound in PBS at pH 7.4 and 37 degree C measured after 2 hrs by HPLC analysis; format: physicochemical; settings: buffer, pH 7.4, 2 h
4T1 [4] = assay: Inhibition of glycolysis in mouse 4T1 cells expressing PDK assessed as reduction in extracellular lactate level at 2 uM after 6 hrs by microplate reader assay; format: functional, cell-based
Mus musculus [5] = assay: Modulation of tumor immunosuppressive activity in BALB/c mouse xenografted with mouse 4T1 cells assessed as increase in IFNgamma expression in tumor administered intratumorally every other day for 14 days measured at 2 days post-last dose by ELISA; format: functional, organism-based
4T1 [6] = assay: Induction of M2-TAM polarization in mouse 4T1 cells assessed as decrease in MRC1 protein level at 2 uM after 48 hrs by Western blot analysis relative to control; format: functional
4T1 [7] = assay: Synergistic anticancer activity against mouse 4T1 cells expressing assessed as combination index after 72 hrs by MTT assay; format: functional
Mus musculus [8] = assay: Modulation of tumor immunosuppressive activity in BALB/c mouse xenografted with mouse 4T1 cells assessed as increase in IL12 expression in serum administered intratumorally every other day for 14 days measured at 2 days post-last dose by ELISA; format: functional, organism-based
MCF7 [9] = assay: Antitumor activity against human MCF7 cells xenografted in BALB/c nude mouse assessed as suppression of tumor progression at 2 mg/kg, iv administered every two days for two weeks measured after 14 days relative to control; format: functional
MCF7 [10] = assay: Induction of ferroptosis in human MCF7 cells assessed as cell death at 2 uM pretreated with antioxidant vitamin E followed by compound treatment by MTT assay; format: functional, cell-based
MCF7 [11] = assay: Induction of apoptosis in human MCF7 cells assessed as downregulation of Bcl2 expression at 2 uM after 48 hrs by Western blot analysis relative to control; format: functional
[12] = Selectivity index, ratio IC50 for cytotoxicity against human HBMEC cells assessed as reduction in cell viability after 72 hrs by MTT assay to IC50 for anticancer activity against human A375 cells assessed as reduction in cell viability after 72 hrs by MTT assay
MCF7 [13] = assay: Induction of ROS generation in human MCF7 cells assessed as ROS level at 2 uM after 24 hrs by DCFDA-fluorescence based flow cytometry (reference value: 6.57 %); format: functional
MCF7 [14] = assay: Induction of apoptosis in human MCF7 cells assessed as necrotic cells at 2 uM after 24 hrs by Annexin V-FITC/propidium iodide staining-based flow cytometric analysis (reference value: 0.10 %); format: functional
[15] = target: [Pyruvate dehydrogenase (acetyl-transferring)] kinase isozyme 1, mitochondrial (Homo sapiens) (UniProt Q15118); assay: Inhibition of PDK1 (unknown origin) in PBS buffer using PDK tide as substrate at pH 7.4 measured after 90 mins in presence of ATP by ADP-Glo luminescent kinase assay
4T1 [16] = assay: Reversal of immunosuppression against mouse 4T1 cells implanted in BALB/c mouse assessed as growth inhibition of primary tumor at 2 mg/kg administered intratumorally every 2 days for 2 weeks measured after 14 days; format: functional, organism-based
MCF7 [17] = assay: Effect on lipid peroxidation in human MCF7 cells assessed as increase in […] at 2 uM after 15 mins by BODIPY-C11 dye based fluorescence imaging analysis relative to control; format: functional
MCF7 [18] = assay: Induction of ferroptosis in human MCF7 cells assessed as cell death at 2 uM pretreated with iron chelating agent deferoxamine followed by compound treatment by MTT assay; format: functional, cell-based
[19] = Selectivity index, ratio IC50 for cytotoxicity against human LO2 cells assessed as reduction in cell viability after 72 hrs by MTT assay to IC50 for anticancer activity against human MCF7 cells assessed as reduction in cell viability after 72 hrs by MTT assay; format: toxicity, cell-based; settings: LO2 cells versus MCF7 cells, read-out: Ratio IC50
[20] = Stability of compound in plasma (unknown origin) 37 degree C measured after 2 hrs by HPLC analysis; format: ADME, cell-free
Mus musculus [21] = assay: Modulation of tumor immunosuppressive activity in BALB/c mouse xenografted with mouse 4T1 cells assessed as increase in IL12 expression in tumor administered intratumorally every other day for 14 days measured at 2 days post-last dose by ELISA; format: functional, organism-based
Mus musculus [22] = assay: Modulation of tumor immunosuppressive activity in BALB/c mouse xenografted with mouse 4T1 cells assessed as increase in TNFalpha expression in serum administered intratumorally every other day for 14 days measured at 2 days post-last dose by ELISA; format: functional, organism-based
4T1 [23] = assay: Anticancer activity against mouse 4T1 cells expressing PDK assessed as reduction in cell viability after 72 hrs by MTT assay; format: functional, cell-based; settings: 4T1, 72 h
MCF7 [24] = assay: Inhibition of glycolysis in human MCF7 cells assessed as reduction in intracellular lactate level at 2 uM after 6 hrs by microplate reader assay; format: functional, cell-based
4T1 [25] = assay: Induction of M2-TAM polarization in mouse 4T1 cells assessed as decrease in Arg1 protein level at 2 uM after 48 hrs by Western blot analysis relative to control; format: functional
MCF7 [26] = assay: Induction of ferroptosis in human MCF7 cells assessed as cell death at 2 uM pretreated with exogenous iron Fe2+ followed by compound treatment by MTT assay; format: functional, cell-based
MCF7 [27] = assay: Synergistic anticancer activity against human MCF7 cells overexpressing assessed as combination index after 72 hrs by MTT assay; format: functional
[28] = Drug metabolism assessed as carboxylesterase (unknown origin)-mediated compound cleavage at aniline-amide bond after 2 hrs by HPLC analysis; format: ADME; settings: human
MCF7 [29] = assay: Induction of metabolic reversal from aerobic glycolysis to oxidative phosphorylation in human MCF7 cells assessed as […] at 2 uM pretreated for 3 hrs followed by oligomycin A addition after 25 mins followed by subsequent addition of FCCP after 50 mins followed by antimycin/rotenone addition after 80 mins by seahorse XF24 extracellular flux analyzer assay; format: functional, cell-based
MCF7 [30] = assay: Inhibition of glycolysis in human MCF7 cells assessed as reduction in extracellular lactate level at 2 uM after 6 hrs by microplate reader assay; format: functional, cell-based
[31] = Selectivity index, ratio IC50 for cytotoxicity against human LO2 cells assessed as reduction in cell viability after 72 hrs by MTT assay to IC50 for anticancer activity against human A375 cells assessed as reduction in cell viability after 72 hrs by MTT assay; format: toxicity, cell-based; settings: LO2 cells versus A375 cells, read-out: Ratio IC50
[32] = Selectivity index, ratio IC50 for cytotoxicity against human LO2 cells assessed as reduction in cell viability after 72 hrs by MTT assay to IC50 for anticancer activity against mouse 4T1 cells assessed as reduction in cell viability after 72 hrs by MTT assay
4T1 [33] = assay: Induction of M2-TAM polarization in mouse 4T1 cells assessed as decrease in MRC1 mRNA expression at 2 uM after 48 hrs by Western blot analysis relative to control; format: functional

For `CC1(C)CC[C@]2(C(=O)O)CC[C@]3(C)C(=CC[C@@H]4[C@@]5(C)CC[C@H](O[C@@H]6O[C@H](CO[C@@H]7OC[C@H](O)[C@H](O)[C@H]7O)[C@@H](O)[C@H](O)[C@H]6NC(=O)C(Cl)Cl)C(C)(C)[C@@H]5CC[C@]43C)[C@@H]2C1`, the “fold change (FC)” value (MCF7 [1]) was 6, the Activity [2] was “Non-Toxic” and the CI (A-375) was 0.7. For the same compound, the Stability [3] was “Stable”, the inhibition (4T1 [4]) was “Active” and the Activity (Mus musculus [5]) was “Active”. The “fold change (FC)” value (4T1 [6]) was 3.4, the CI (4T1 [7]) was 0.09 and the Activity (Mus musculus [8]) was “Active”. The Activity (MCF7 [9]) was 100%, the Activity (MCF7 [10]) was “inactive” and the “fold change (FC)” value (MCF7 [11]) was 0.5. For the same compound, the “Ratio IC50” value [12] was 10.11, the Activity (MCF7 [13]) was 44.19% and the Activity (MCF7 [14]) was 4.86%. For the same compound, the inhibition [15] was “inactive”, the “growth inhibition (GI)” value (4T1 [16]) was “Active” and the “fold change (FC)” value (MCF7 [17]) was 2.5. For the same compound, the Activity (MCF7 [18]) was “inactive”, the selectivity ratio at 72 h [19] was 124 and the Stability [20] was “Stable”. The Activity (Mus musculus [21]) was “Active”, the Activity (Mus musculus [22]) was “Active” and the IC50 (4T1 [23]) was 1310 nM. The inhibition (MCF7 [24]) was “Active”, the “fold change (FC)” value (4T1 [25]) was 2.1 and the Activity (MCF7 [26]) was “Active”. For the same compound, the CI (MCF7 [27]) was 0.03, the Drug metabolism [28] was “Metabolite_Detected” and the Activity (MCF7 [29]) was “inactive”. For the same compound, the inhibition (MCF7 [30]) was “Active”, the selectivity ratio at 72 h [31] was 14.1 and the “Ratio IC50” value [32] was 40.56. The “fold change (FC)” value (4T1 [33]) was 3.4.

— ChEMBL document CHEMBL4354807, “Natural Product Albiziabioside A Conjugated with Pyruvate Dehydrogenase Kinase Inhibitor Dichloroacetate To Induce Apoptosis-Ferroptosis-M2-TAMs Polarization for Combined Cancer Therapy” (J Med Chem, 2019)
